Assay results: patent publication US9708328B2, “Pteridines useful as HCV inhibitors and methods for the preparation thereof” (Janssen Sciences Ireland UC, priority 2005, dated 2017)
Where two headings read alike, the source gives them in different places.

Experiments:
[1] = test system: HCV replicon (HCV type 1b) in Huh-7 luc/neo cells; test: Stable replicon cell reporter assay (Huh-Luc, luciferase readout); type: cell-based; conditions: Hepatitis C virus, Huh-7, 72 h, three days incubation, luciferase activity
From the text: Stable Replicon Cell Reporter Assays:
The compounds of the present invention are examined for activity in the inhibition of HCV RNA replication in a cellular assay. […] The cellular assay is based on a bicistronic expression construct, as described by Lohmann et al. (1999) Science vol. 285 pp. 110-113 with modifications described by Krieger et al. (2001) Journal of Virology 75: 4614-4624, in a multi-target screening strategy. In essence, the method is as follows.
The assay utilizes the stably transfected cell line Huh-7 luc/neo (hereafter referred to as Huh-Luc). This cell line harbors an RNA encoding a bicistronic expression construct comprising the wild type NS3-NS5B regions of HCV type 1b translated from an Internal Ribosome Entry Site (IRES) from encephalomyocarditis virus (EMCV), preceded by a reporter portion (FfL-luciferase), and a selectable marker portion (neo^R, neomycine phosphotransferase). The construct is bordered by 5′ and 3′ NTRs (non-translated regions) from HCV type 1b. Continued culture of the replicon cells in the presence of G418 (neo^R) is dependent on the replication of the HCV RNA. The stably transfected replicon cells that express HCV RNA, which replicates autonomously and to high levels, encoding inter alia luciferase, are used for screening the antiviral compounds.
Cellular Assay Experimental Method:
The replicon cells are plated in 384 well plates in the presence of the test and control compounds which are added in various concentrations. Following an incubation of three days, HCV replication is measured by assaying luciferase activity (using standard luciferase assay substrates and reagents and a Perkin Elmer ViewLux™ ultraHTS microplate imager). Replicon cells in the control cultures have high luciferase expression in the absence of any inhibitor. The inhibitory activity of the compound on luciferase activity is monitored on the Huh-Luc cells, enabling a dose-response curve for each test compound.

[2] = Pharmacokinetic profile after single oral administration: plasma, heart and liver levels; type: in vivo, male Swiss SPF (CD1)-mice
Method: Compound nr. 21 was dissolved in a 10% hydroxypropyl-β-cyclodextrin (HP-β-CD) solution at a final concentration of 1 mg base-eq./ml, .pH 4.36.
Three animals were administered orally the solution of compound nr. 21 to obtain a dose of 20 mg base-eq./kg. Blood samples were taken at 30 min, 1, 2, 4, 8 and 24 h after oral dose administration. Plasma was obtained following centrifugation at 4° C. for 10 minutes at approximately 1900×g.
From each orally dosed animal individual samples of heart and liver were dissected and weighed. Tissue samples were homogenized in demineralized water.
Plasma and tissue samples were analysed for compound nr. 21, using a qualified research LC-MS/MS method.
A limited pharmacokinetic analysis was performed using WinNonlin™ Professional (Version 4.0.1). A non-compartmental analysis using the lin/log trapezoidal rule with lin/log interpolation was used for all data. The variability between animals is indicated by the standard deviation (st dev).

Work on Fc1ccc(Br)cc1-c1nc(Nc2ccncc2)c2nccnc2n1 [Compound 1, 2-(5-bromo-2-fluorophenyl)-4-(4-pyridylamino)pteridine] yielded an EC50 [1] of 0.352 µM.

In the case of CN(c1ccncc1)c1nc(-c2cc(Br)ccc2F)nc2nccnc12 [Compound 2, 2-(5-bromo-2-fluorophenyl)-4-[(methyl)(4-pyridyl)amino]pteridine], the EC50 [1] is reported as 3.65 µM.

Work on CCCCN(c1ccncc1)c1nc(-c2cc(Br)ccc2F)nc2nccnc12 [Compound 3, 4-[(butyl)(4-pyridyl)amino]-2-(5-bromo-2-fluorophenyl)pteridine] yielded an EC50 [1] of 2.2 µM.

Compound CC(C)(C)CCN(c1ccncc1)c1nc(-c2cc(Br)ccc2F)nc2nccnc12 [Compound 4, 2-(5-bromo-2-fluorophenyl)-4-[(3,3-dimethylbutyl)(4-pyridyl)amino]pteridine] has an EC50 [1] of 0.48 µM.

Work on Fc1ccc(Br)cc1-c1nc(N(Cc2ccccc2)c2ccncc2)c2nccnc2n1 [Compound 5, 4-[(benzyl)(4-pyridyl)amino]-2-(5-bromo-2-fluorophenyl)pteridine] yielded an EC50 [1] of 0.99 µM.

Cc1cnccc1Nc1nc(-c2cc(Br)ccc2N2CCCC2)nc2nccnc12 [Compound 6, 2-(5-Bromo-2-pyrrolidin-1-ylphenyl)-4-(3-methyl-4-pyridylamino)pteridine] gave an EC50 [1] of 18 µM.

Cc1cnccc1Nc1nc(-c2cc(Br)ccc2F)nc2nccnc12 [Compound 7, 2-(5-bromo-2-fluorophenyl)-4-(3-methyl-4-pyridylamino)pteridine] gave an EC50 [1] of 0.95 µM.

With Fc1ccc(Br)cc1-c1nc(Nc2ccccc2)c2nccnc2n1 [Compound 8, 2-(5-bromo-2-fluorophenyl)-4-(phenylamino)pteridine] the EC50 [1] was over 32 µM.

With Cc1ccccc1Nc1nc(-c2cc(Br)ccc2F)nc2nccnc12 [Compound 9, 2-(5-bromo-2-fluorophenyl)-4-(2-tolylamino)pteridine] the EC50 [1] was 11 µM.

Work on CN(c1ccccc1)c1nc(-c2cc(Br)ccc2F)nc2nccnc12 [Compound 10, 2-(5-bromo-2-fluorophenyl)-4-[(methyl)(phenyl)amino]pteridine] yielded an EC50 [1] of 11 µM.

OCCNc1nc(-c2cc(Br)ccc2F)nc2nccnc12 [Compound 11, 2-(5-bromo-2-fluorophenyl)-4-(2-hydroxyethylamino)pteridine] showed an EC50 [1] of over 32 µM.

Fc1ccc(Br)cc1-c1nc(N2CCN(c3ccccn3)CC2)c2nccnc2n1 [Compound 12, 2-(5-bromo-2-fluorophenyl)-4-[4-(2-pyridyl)piperazin-1-yl]pteridine] gave an EC50 [1] of over 32 µM.

COC(=O)c1cnccc1Nc1nc(-c2cc(Br)ccc2F)nc2nccnc12 [Compound 13, 4-[[2-(5-Bromo-2-fluorophenyl)pteridin-4-yl]amino]nicotinic acid methyl ester] showed an EC50 [1] of 4.9 µM.

For Fc1ccc(Br)cc1-c1nc(Nc2ccc(N3CCOCC3)cc2)c2nccnc2n1 [Compound 14, 2-(5-bromo-2-fluorophenyl)-4-(4-morpholinophenylamino)pteridine], the EC50 [1] was 8.7 µM.

In the case of Cc1cc(Nc2nc(-c3cc(Br)ccc3F)nc3nccnc23)ccn1 [Compound 15, 2-(5-bromo-2-fluorophenyl)-4-(2-methyl-4-pyridylamino)pteridine], the EC50 [1] is reported as 3.56 µM.

Work on Clc1cccc(-c2nc(Nc3ccncc3)c3nccnc3n2)c1 [Compound 18, 2-(3-chlorophenyl)-4-(4-pyridylamino)pteridine] yielded an EC50 [1] of 1.5 µM.

For Cc1cccc(-c2nc(Nc3ccncc3C)c3nccnc3n2)n1 [Compound 19, 2-(2-methyl-6-pyridyl)-4-[(3-methyl-4-pyridyl)amino]pteridine], the EC50 [1] was 12 µM.

In the case of O=C(NCCCN1CCCC1=O)c1cnccc1Nc1nc(-c2cc(Br)ccc2F)nc2nccnc12 [Compound 21, 4-[[2-(5-bromo-2-fluorophenyl)pteridin-4-yl]amino]-N-[3-(2-oxopyrrolidin-1-yl)propyl]nicotinamide], the AUC0-inf ([2]; heart, 20 mg base-eq./kg oral) is reported as 1262 ng·h/mL, the “AUC(0-8 h)” value ([2]; heart, 20 mg base-eq./kg oral) is reported as 1119 ng·h/mL and the Tmax ([2]; heart, 20 mg base-eq./kg oral) is reported as 0.5 h. For the same compound, the “t1/2 (2-8 h)” value ([2]; heart, 20 mg base-eq./kg oral) was 3.4 h, the Cmax ([2]; heart, 20 mg base-eq./kg oral (Table 4)) was 678 ng/mL and the “Mean tissue level, heart” value ([2]; heart, time 24 h, 20 mg base-eq./kg oral, n=3, LLOQ between 5.00 and 13.16 ng/g) was “BQL^1)”. For the same compound, the AUC0-inf ([2]; liver, 20 mg base-eq./kg oral) was 7973 ng·h/mL, the “AUC(0-8 h)” value ([2]; liver, 20 mg base-eq./kg oral) was 6965 ng·h/mL and the Tmax ([2]; liver, 20 mg base-eq./kg oral) was 0.5 h. The “t1/2 (2-8 h)” value ([2]; liver, 20 mg base-eq./kg oral) was 3.5 h, the Cmax ([2]; liver, 20 mg base-eq./kg oral (Table 4)) was 4057 ng/mL and the “Mean tissue level, liver” value ([2]; liver, time 24 h, 20 mg base-eq./kg oral, n=3, LLOQ between 5.00 and 13.16 ng/g) was “BQL^1)”. It also gave a Cmax ([2]; male, Swiss SPF (CD1), mouse, 20 mg/kg, heart, 0.5 h post dose, 20 mg base-eq./kg oral, read-out: Mean maximum tissue concentration (Cmax)) of 678 ng/g, a Cmax ([2]; male, Swiss SPF (CD1), mouse, 20 mg/kg, liver, 0.5 h post dose, 20 mg base-eq./kg oral, read-out: Mean maximum tissue concentration (Cmax)) of 4060 ng/g and a concentration at 0.5 h ([2]; male, Swiss SPF (CD1), mouse, plasma, time 0.5 h, 20 mg base-eq./kg oral, n=3, read-out: Mean plasma level) of 220 ng/mL. The concentration at 1 h ([2]; male, Swiss SPF (CD1), mouse, plasma, time 1 h, 20 mg base-eq./kg oral, n=3, read-out: Mean plasma level) was 166 ng/mL, the concentration at 2 h ([2]; male, Swiss SPF (CD1), mouse, plasma, time 2 h, 20 mg base-eq./kg oral, n=3, read-out: Mean plasma level) was 21.7 ng/mL and the concentration at 4 h ([2]; male, Swiss SPF (CD1), mouse, plasma, time 4 h, 20 mg base-eq./kg oral, n=3, read-out: Mean plasma level) was 20.3 ng/mL. The concentration at 8 h ([2]; male, Swiss SPF (CD1), mouse, plasma, time 8 h, 20 mg base-eq./kg oral, n=3, read-out: Mean plasma level) was 5.52 ng/mL, the AUC0-inf ([2]; plasma, 20 mg base-eq./kg oral) was 332 ng·h/mL and the “AUC(0-8 h)” value ([2]; plasma, 20 mg base-eq./kg oral) was 309 ng·h/mL. The Cmax ([2]; plasma, 20 mg base-eq./kg oral) was 220 ng/mL, the Tmax ([2]; plasma, 20 mg base-eq./kg oral) was 0.5 h and the “t1/2 (2-8 h)” value ([2]; plasma, 20 mg base-eq./kg oral) was 2.9 h. For the same compound, the Mean plasma level ([2]; plasma, time 24 h, 20 mg base-eq./kg oral, n=3, LLOQ 0.500 ng/ml) was “BQL^1)” and the EC50 [1] was 0.058 µM.

For Fc1ccc(Br)cc1-c1nc(N(CCc2ccccc2)c2ccncc2)c2nccnc2n1 [Compound 22, 2-(5-bromo-2-fluorophenyl)-4-[(phenethyl)(4-pyridyl)amino]-pteridine], the EC50 [1] was 1.96 µM.

Work on CCc1cnccc1Nc1nc(-c2cc(Cl)ccc2F)nc2nccnc12 [Compound 23, 2-(5-chloro-2-fluorophenyl)-4-(3-ethyl-4-pyridylamino)pteridine] yielded an EC50 [1] of 0.52 µM.

Compound Fc1ccc(Cl)cc1-c1nc(Nc2ccncc2)c2nccnc2n1 [Compound 24, 2-(5-chloro-2-fluorophenyl)-4-(4-pyridylamino)pteridine] has an EC50 [1] of 0.78 µM.

For Cc1cnccc1Nc1nc(-c2cc(Cl)ccc2F)nc2nccnc12 [Compound 25, 2-(5-chloro-2-fluorophenyl)-4-(3-methyl-4-pyridylamino)pteridine], the EC50 [1] was 0.48 µM.

FC(F)(F)c1cccc(-c2nc(Nc3ccncc3)c3nccnc3n2)c1 [Compound 26, 2-(3-trifluoromethylphenyl)-4-(4-pyridylamino)pteridine] gave an EC50 [1] of 2 µM.

In the case of Fc1cccc(-c2nc(Nc3ccncc3)c3nccnc3n2)c1 [Compound 27, 2-(3-fluorophenyl)-4-(4-pyridylamino)pteridine], the EC50 [1] is reported as 3 µM.
